This note sets out measurements from ChEMBL document CHEMBL5344409, “Discovery of pan-IAP degraders via a CRBN recruiting mechanism” (2023).

For experiment [1], the target named is Baculoviral IAP repeat-containing protein 2 (Homo sapiens) (UniProt Q13490). The experiment is described as follows: Induction of cIAP1 degradation in human MCF7 cells by western blot analysis. Format: cell-based. On the technique in general: A western blot detects proteins with antibodies after separation by electrophoresis.
Experiment [2] deals with Baculoviral IAP repeat-containing protein 3 (Homo sapiens) (UniProt Q13489). The experiment can be described thus: Induction of cIAP2 degradation in human MCF7 cells by western blot analysis. It is filed as cell-based.
Experiment [3] relates to MCF7. The experiment is described as follows: Induction of apoptosis in human MCF7 cells assessed as increase in caspase 7 cleavage at 0.1 uM measured after 18 hrs by western blot analysis. Format: functional, cell-based.
The subject of experiment [4] is MCF7. The experiment can be described thus: Induction of apoptosis in human MCF7 cells assessed as increase in PARP cleavage at 0.1 uM measured after 18 hrs by western blot analysis. Format: functional, cell-based.
Experiment [5] deals with MCF7. The experiment can be described thus: Induction of apoptosis in human MCF7 cells assessed as increase in total apoptotic cells at 1 uM measured after 48 hrs by AnnexinV-FITC/PI staining based flow cytometry. It is filed as functional. On the technique in general: A flow cytometer gives signals particle by particle.
Experiment [6] deals with MCF7. The experiment can be described thus: Cytotoxicity against human MCF7 cells assessed as inhibition of cell growth measured after 72 hrs by CellTiter-Glo luminescent assay. It is filed as functional. (In general: Cellular ATP, detected with luciferase, serves as a proxy for viable cell number.)
In experiment [7] the test system is SK-OV-3. The experiment can be described thus: Cytotoxicity against human SK-OV-3 cells assessed as inhibition of cell growth measured after 72 hrs by CellTiter-Glo luminescent assay. Format: functional, cell-based.
In experiment [8] the target is T1, Protein cereblon-IAP (Homo sapiens) (UniProt P98170+Q13489+Q13490+Q96SW2). The experiment is described as follows: PROTAC activity at CRBN/IAP in human MCF7 cells assessed as inhibition of TNFalpha-induced NFkappaB activation by measuring decrease in IKKalpha/beta phosphorylation at 0.1 uM pretreated for 2 hrs followed by stimulation with TNF-alpha for 3 mins by western blot analysis. Format: cell-based. Conditions: time 123.0 min.

Experiment [9] concerns the target T1, Protein cereblon-IAP (Homo sapiens). The experiment is described as follows: PROTAC activity at CRBN/IAP in human MCF7 cells assessed as inhibition of TNFalpha-induced NFkappaB activation by measuring decrease in IkBalpha phosphorylation at 0.1 uM pretreated for 2 hrs followed by stimulation with TNF-alpha for 3 mins by western blot analysis. It is filed as cell-based. Particulars: time 123.0 min.

The target is the same in experiment [10]. The experiment is described as follows: PROTAC activity at CRBN/IAP in human MCF7 cells assessed as inhibition of TNFalpha-induced NFkappaB activation by measuring decrease in p65 phosphorylation at 0.1 uM pretreated for 2 hrs followed by stimulation with TNF-alpha for 3 mins by western blot analysis. It is filed as cell-based. Conditions: time 123.0 min.

Experiment [11] has the same target. The experiment is described as follows: PROTAC activity at CRBN/IAP in human MCF7 cells assessed as inhibition of TNFalpha-induced NFkappaB activation by measuring decrease in p38 phosphorylation at 0.1 uM pretreated for 2 hrs followed by stimulation with TNF-alpha for 3 mins by western blot analysis. It is filed as cell-based. Conditions: time 123.0 min.
Experiment [12] concerns MDA-MB-231. The experiment is described as follows: Inhibition of TNFalpha-induced cell migration in human MDA-MB-231 cells at 0.1 uM measured after 24 hrs in presence of TNFalpha by transwell assay. It is filed as functional, cell-based.
The subject of experiment [13] is MDA-MB-231. The experiment is described as follows: Inhibition of TNFalpha-induced cell invasion in human MDA-MB-231 cells at 0.1 uM measured after 24 hrs in presence of TNFalpha by transwell assay. It is filed as functional, cell-based.
Experiment [14] has as its system MDA-MB-157. The experiment can be described thus: Inhibition of TNFalpha-induced cell migration in human MDA-MB-157 cells at 0.1 uM measured after 24 hrs in presence of TNFalpha by transwell assay. Format: functional, cell-based.
Experiment [15] concerns MDA-MB-157. The experiment can be described thus: Inhibition of TNFalpha-induced cell invasion in human MDA-MB-157 cells at 0.1 uM measured after 24 hrs in presence of TNFalpha by transwell assay. Format: functional, cell-based.
For experiment [16], the target named is T2, Protein cereblon/E3 ubiquitin-protein ligase XIAP (Homo sapiens) (UniProt P98170+Q96SW2). The experiment is described as follows: PROTAC activity at CRBN/XIAP in human MCF7 cells assessed as induction of XIAP degradation at 0.1 uM measured after 18 hrs by western blot analysis. Format: cell-based.
For experiment [17], the target named is T2, Protein cereblon/E3 ubiquitin-protein ligase XIAP (Homo sapiens). The experiment is described as follows: PROTAC activity at CRBN/XIAP in human MCF7 cells assessed as induction of XIAP degradation at 1 uM measured after 18 hrs by western blot analysis. Format: cell-based.
Experiment [18] addresses T3, Protein cereblon/Baculoviral IAP repeat-containing protein 3 (Homo sapiens) (UniProt Q13489+Q96SW2). The experiment can be described thus: PROTAC activity at CRBN/cIAP2 in human MCF7 cells assessed as induction of cIAP2 degradation at 0.1 uM measured after 18 hrs by western blot analysis. It is filed as cell-based.
In experiment [19] the target is T3, Protein cereblon/Baculoviral IAP repeat-containing protein 3 (Homo sapiens). The experiment is described as follows: PROTAC activity at CRBN/cIAP2 in human MCF7 cells assessed as induction of cIAP2 degradation at 1 uM measured after 18 hrs by western blot analysis. It is filed as cell-based.
Experiment [20] has as its target Baculoviral IAP repeat-containing protein 2 (Homo sapiens) (UniProt Q13490). The experiment is described as follows: Induction of cIAP1 degradation in human MCF7 cells at 0.1 uM measured after 18 hrs by western blot analysis. Format: cell-based.
Experiment [21] has the same target. The experiment can be described thus: Induction of cIAP1 degradation in human MCF7 cells at 1 uM measured after 18 hrs by western blot analysis. It is filed as cell-based.
Experiment [22] deals with Protein cereblon (Homo sapiens) (UniProt Q96SW2). The experiment can be described thus: Induction of CRBN degradation in human MCF7 cells by western blot analysis. Format: cell-based.
Experiment [23] deals with T3, Protein cereblon/Baculoviral IAP repeat-containing protein 3 (Homo sapiens). The experiment can be described thus: PROTAC activity at CRBN/cIAP2 in human MCF7 cells assessed as induction of cIAP2 degradation by western blot analysis. It is filed as cell-based.

Activity calls are given as the source filed them. The rule behind the calls is not given here.

Chain of Protein cereblon (Homo sapiens) (Q96SW2 whole entry): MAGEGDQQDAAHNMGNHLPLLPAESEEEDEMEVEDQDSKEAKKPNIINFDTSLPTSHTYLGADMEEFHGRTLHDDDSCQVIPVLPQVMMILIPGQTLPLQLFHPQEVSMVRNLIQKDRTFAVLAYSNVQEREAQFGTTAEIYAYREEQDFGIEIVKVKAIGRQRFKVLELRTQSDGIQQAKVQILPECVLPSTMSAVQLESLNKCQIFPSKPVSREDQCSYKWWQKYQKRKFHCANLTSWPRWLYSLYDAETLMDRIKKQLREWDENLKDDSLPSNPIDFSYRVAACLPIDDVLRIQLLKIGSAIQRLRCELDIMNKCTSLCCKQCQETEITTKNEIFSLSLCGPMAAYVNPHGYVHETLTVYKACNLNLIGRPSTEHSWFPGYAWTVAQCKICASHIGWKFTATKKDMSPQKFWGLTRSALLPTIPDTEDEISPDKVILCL
T2 sequence (P98170 whole entry, looked up): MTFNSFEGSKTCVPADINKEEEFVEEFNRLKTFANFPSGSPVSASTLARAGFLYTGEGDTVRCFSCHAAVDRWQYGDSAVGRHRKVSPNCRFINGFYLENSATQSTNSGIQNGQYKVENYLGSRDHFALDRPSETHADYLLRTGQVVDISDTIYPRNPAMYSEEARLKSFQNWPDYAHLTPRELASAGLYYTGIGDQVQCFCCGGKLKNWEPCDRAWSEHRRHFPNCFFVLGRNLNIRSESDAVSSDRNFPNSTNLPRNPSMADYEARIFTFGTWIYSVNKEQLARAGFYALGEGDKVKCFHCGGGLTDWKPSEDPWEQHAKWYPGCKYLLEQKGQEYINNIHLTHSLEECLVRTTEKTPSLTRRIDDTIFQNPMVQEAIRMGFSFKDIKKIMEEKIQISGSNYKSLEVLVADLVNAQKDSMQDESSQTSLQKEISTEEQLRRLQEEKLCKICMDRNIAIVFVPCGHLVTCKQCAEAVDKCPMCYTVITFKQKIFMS
T2 sequence (Q96SW2 whole entry, looked up): as the sequence (Q96SW2 whole entry) above
T1 sequence (P98170 whole entry, looked up): as the sequence (P98170 whole entry, looked up) above
T1 sequence (Q13489 whole entry, looked up): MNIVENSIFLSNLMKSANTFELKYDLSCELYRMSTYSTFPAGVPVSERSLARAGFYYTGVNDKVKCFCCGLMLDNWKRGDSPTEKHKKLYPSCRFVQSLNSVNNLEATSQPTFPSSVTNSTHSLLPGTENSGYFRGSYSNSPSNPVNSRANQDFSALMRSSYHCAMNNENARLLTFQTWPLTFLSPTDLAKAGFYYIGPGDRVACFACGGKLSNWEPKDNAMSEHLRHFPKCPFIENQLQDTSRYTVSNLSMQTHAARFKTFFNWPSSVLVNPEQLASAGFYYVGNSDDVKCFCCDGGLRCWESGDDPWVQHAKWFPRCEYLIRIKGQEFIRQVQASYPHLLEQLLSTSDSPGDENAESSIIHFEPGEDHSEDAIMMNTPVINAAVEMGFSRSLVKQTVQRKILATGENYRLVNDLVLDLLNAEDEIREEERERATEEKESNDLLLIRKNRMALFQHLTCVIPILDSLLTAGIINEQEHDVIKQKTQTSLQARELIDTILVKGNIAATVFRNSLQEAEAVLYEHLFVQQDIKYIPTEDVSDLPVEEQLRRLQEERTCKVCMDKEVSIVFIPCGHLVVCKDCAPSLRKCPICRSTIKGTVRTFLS
T1 sequence (Q13490 whole entry, looked up): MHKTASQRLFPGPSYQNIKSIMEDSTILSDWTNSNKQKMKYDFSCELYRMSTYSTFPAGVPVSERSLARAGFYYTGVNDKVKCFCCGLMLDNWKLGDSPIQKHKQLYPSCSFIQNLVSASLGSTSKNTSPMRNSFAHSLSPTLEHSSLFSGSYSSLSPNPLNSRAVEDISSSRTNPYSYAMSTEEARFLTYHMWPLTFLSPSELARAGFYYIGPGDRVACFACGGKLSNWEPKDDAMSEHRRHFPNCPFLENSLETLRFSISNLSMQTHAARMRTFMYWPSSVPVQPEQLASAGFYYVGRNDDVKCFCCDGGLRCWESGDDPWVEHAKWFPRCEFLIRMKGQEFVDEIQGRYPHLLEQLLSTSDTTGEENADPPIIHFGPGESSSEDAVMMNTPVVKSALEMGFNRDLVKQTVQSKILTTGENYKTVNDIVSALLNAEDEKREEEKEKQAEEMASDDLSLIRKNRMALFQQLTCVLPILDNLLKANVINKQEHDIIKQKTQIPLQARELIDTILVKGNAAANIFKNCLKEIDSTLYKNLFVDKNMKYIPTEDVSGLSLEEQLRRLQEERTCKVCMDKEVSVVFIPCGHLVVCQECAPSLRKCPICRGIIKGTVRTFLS
T1 sequence (Q96SW2 whole entry, looked up): as the sequence (Q96SW2 whole entry) above
T3 sequence (Q13489 whole entry, looked up): as the sequence (Q13489 whole entry, looked up) above
T3 sequence (Q96SW2 whole entry, looked up): as the sequence (Q96SW2 whole entry) above
Chain of Baculoviral IAP repeat-containing protein 2 (Homo sapiens) (Q13490 whole entry): as the sequence (Q13490 whole entry, looked up) above
Chain of Baculoviral IAP repeat-containing protein 3 (Homo sapiens) (Q13489 whole entry): as the sequence (Q13489 whole entry, looked up) above

For `CN[C@@H](C)C(=O)N[C@H](C(=O)N1Cc2cc(OCCCCCCCCNC(=O)C3CN(c4ccc5c(c4)C(=O)N(C4CCC(=O)N(C)C4=O)C5=O)C3)ccc2C[C@H]1C(=O)N[C@@H]1CCCc2ccccc21)C(C)(C)C` (some centres undefined), the outcome in [1], in experiment [2], in experiment [3], in experiment [4] and in [7] was Active. Further, in experiment [5], the Activity came out at 32%. In addition, the GI50 in [6] was 77.8 µM. For the same compound, the result in experiment [8], in experiment [9], in [10] and in experiment [11] was inactive. Moreover, the inhibition result in experiment [12], in experiment [13], in experiment [14] and in experiment [15] was “Active” each time.
With `CN[C@@H](C)C(=O)N[C@H](C(=O)N1Cc2cc(OCCCCCCCCNC(=O)C3CCN(c4ccc5c(c4)C(=O)N(C4CCC(=O)NC4=O)C5=O)CC3)ccc2C[C@H]1C(=O)N[C@@H]1CCCc2ccccc21)C(C)(C)C` (some centres undefined), the Activity in [16] came to 95%; in experiment [17] it was 82%; in [18], 98%; in experiment [19] it was 99%; in experiment [20], 96%; in experiment [21], 97%. Also, the outcome in experiment [22] was inactive.
Take `CN[C@@H](C)C(=O)N[C@H](C(=O)N1Cc2cc(OCCCCCNC(=O)C3CN(c4ccc5c(c4)C(=O)N(C4CCC(=O)NC4=O)C5=O)C3)ccc2C[C@H]1C(=O)N[C@@H]1CCCc2ccccc21)C(C)(C)C` (some centres undefined): the Activity worked out at 56% in [16]; 39% in [17]; 100% in [18]; 100% in experiment [19]; 92% in experiment [20]; 89% in experiment [21]. For the same compound, the result in [22] was inactive.
As to `CN[C@@H](C)C(=O)N[C@H](C(=O)N1Cc2cc(OCCCCCNC(=O)COc3ccc4c(c3)C(=O)N(C3CCC(=O)NC3=O)C4=O)ccc2C[C@H]1C(=O)N[C@@H]1CCCc2ccccc21)C(C)(C)C` (some centres undefined), the Activity is 83% in experiment [16]; 73% in experiment [17]; 100% in experiment [18]; 100% in experiment [19]; 89% in experiment [20]; 91% in experiment [21]. Further, the result in experiment [22] was inactive.
Regarding `CN[C@@H](C)C(=O)N[C@H](C(=O)N1Cc2cc(OCCCCCNC(=O)C3CCN(c4ccc5c(c4)C(=O)N(C4CCC(=O)NC4=O)C5=O)CC3)ccc2C[C@H]1C(=O)N[C@@H]1CCCc2ccccc21)C(C)(C)C` (some centres undefined), the Activity in experiment [16] came to 90%; in experiment [17], 78%; in experiment [18], 97%; in experiment [19], 100%; in [20] it was 91%; in experiment [21], 93%. Moreover, the outcome in experiment [22] was inactive.
As to `CNC(C)C(=O)NC(C(=O)N1Cc2cc(OCCCCCNc3ccc4c(c3)C(=O)N(C3CCC(=O)NC3=O)C4=O)ccc2C[C@H]1C(=O)NC1CCCc2ccccc21)C(C)(C)C` (single isomer, unassigned), the Activity was determined as 67% in [16]; 58% in experiment [17]; 100% in experiment [18]; 98% in experiment [19]; 97% in experiment [20]; 98% in experiment [21]. Further, the result in experiment [22] was inactive.
Regarding `CN[C@@H](C)C(=O)N[C@H](C(=O)N1Cc2cc(OCCCCCNC(=O)CNc3ccc4c(c3)C(=O)N(C3CCC(=O)NC3=O)C4=O)ccc2C[C@H]1C(=O)N[C@@H]1CCCc2ccccc21)C(C)(C)C` (some centres undefined), the Activity was determined as 87% in experiment [16]; 65% in experiment [17]; 100% in experiment [18]; 100% in [19]; 91% in [20]; 92% in experiment [21]. The outcome in [22] was inactive.
For the compound `CN[C@@H](C)C(=O)N[C@H](C(=O)N1Cc2cc(OCCOCCNC(=O)C3CCN(c4ccc5c(c4)C(=O)N(C4CCC(=O)NC4=O)C5=O)CC3)ccc2C[C@H]1C(=O)N[C@@H]1CCCc2ccccc21)C(C)(C)C` (some centres undefined), the Activity in experiment [16] was 0%; in experiment [17], 0%; in experiment [18], 99%; in experiment [19], 94%; in experiment [20], 94%; in experiment [21] it was 93%. In addition, in experiment [22], the result was inactive.
As to `CN[C@@H](C)C(=O)N[C@H](C(=O)N1Cc2cc(O)ccc2C[C@H]1C(=O)N[C@@H]1CCCc2ccccc21)C(C)(C)C`, the Activity was found to be 0% in experiment [16]; 0% in experiment [17]; 100% in experiment [18]; 100% in experiment [19]; 93% in experiment [20]; 95% in experiment [21]. Moreover, in [5], the Activity is 31%. The outcome in [1], in experiment [23], in experiment [3], in experiment [4] and in [7] was Active. The outcome in experiment [22] was inactive. The GI50 in experiment [6] is over 500 µM.
As to `CN[C@@H](C)C(=O)N[C@H](C(=O)N1Cc2cc(OCCCCCNC(=O)C3CCN(c4cccc5c4C(=O)N(C4CCC(=O)NC4=O)C5=O)CC3)ccc2C[C@H]1C(=O)N[C@@H]1CCCc2ccccc21)C(C)(C)C` (some centres undefined), the Activity in experiment [16] came to 91%; in experiment [17], 78%; in [18], 99%; in experiment [19], 90%; in experiment [20], 93%; in experiment [21] it was 91%. In [22], the result was inactive.
`CN[C@@H](C)C(=O)N[C@H](C(=O)N1Cc2cc(OCCCCCNc3cccc4c3C(=O)N(C3CCC(=O)NC3=O)C4=O)ccc2C[C@H]1C(=O)N[C@@H]1CCCc2ccccc21)C(C)(C)C` (some centres undefined): the Activity in experiment [16] came to 81%; in experiment [17], 65%; in experiment [18] it was 100%; in [19], 100%; in experiment [20], 94%; in experiment [21], 92%. In [22], the result was inactive.
As to `CN[C@@H](C)C(=O)N[C@H](C(=O)N1Cc2cc(OCCCNC(=O)C3CCN(c4ccc5c(c4)C(=O)N(C4CCC(=O)NC4=O)C5=O)CC3)ccc2C[C@H]1C(=O)N[C@@H]1CCCc2ccccc21)C(C)(C)C` (some centres undefined), the Activity in experiment [16] was determined as 52%; in [17], 13%; in experiment [18], 97%; in [19], 100%; in [20] it was 92%; in experiment [21] it was 95%. Besides, the outcome in experiment [22] was inactive.

By GI50 is commonly meant the concentration that inhibits growth by half.
